Source: patent publication US11596623B2, “Methods for treating virus infection or proliferation” (HOWARD UNIVERSITY, priority 2018, dated 2023)

Assays:
[1] = target: T1, RACK1 (Homo sapiens, UniProt P63244); test: RACK1 protein western in EV-D68 infected HEp-2 cells; type: cell-based; conditions: 48 h
T1 construct: endogenous in cells; host or cells: HEp-2 cells (human laryngeal carcinoma line), virus-infected
Experimental: HEp-2 cells were grown to 80-90% confluency in Dulbecco's Modified Eagle's medium (DMEM) supplemented with 10% fetal calf serum (FCS) and 1% penicillin-streptomycin (PS) and fungicide. The virus and the indicated concentration of compounds were added and incubated for 48 h. After washing with PBS, the cell lysates were collected and were run in a Biorad XT-Criterion gel and transferred to a PVDF membrane. The membrane was blotted with an antibody directed against the EVD68 major structural protein VP1 purchased from Genetex (Irvine, Calif.). An anti-mouse IgG-HRP secondary antibody and Biorad's Western ECL substrate-Clarity was used to label the bands and the image was obtained in a Biorad Gel doc system. […] The tubulin antibody was used as the loading control.
HEp-2 cells were grown to 80-90% confluency in Dulbecco's Modified Eagle's medium (DMEM) supplemented with 10% fetal calf serum FCS and 1% penicillin-streptomycin (PS) and fungicide. The representative virus (EV-D68) and the indicated concentration of compounds were added and incubated for 48 h. After washing with PBS, the cell lysates were collected and were run in a Biorad XT-Criterion gel and transferred to a PVDF membrane. The membrane was blotted with an antibody directed against the EV-D68 major structural protein VP1 purchased from Genetex (Irvine, Calif.). […]

[2] = system: HSV-1; test: HSV-1 cytopathic effect in HEp-2 cells under microscope; type: cell-based; conditions: 24 h, different concentrations, versus DMSO
Experimental: The HSV-1 virus and the indicated concentration of compounds were added and incubated for 24 h. After washing way the virus with PBS, image was taken under a compound microscope.

[3] = system: HSV-1 ICP0; test: Real-time RT-PCR of HSV-1 ICP0 transcript in HEp-2 cells; type: cell-based; conditions: 12 and 24 hpi, versus DMSO
Text: The total transcript levels were quantified using actin expression as an internal control. The cDNA obtained immediately after the virus and drug transfection(s) was set as a baseline value. The normalized expression values were transformed to the log 10 value. The data plot represents mean t standard error calculated from three replicates.
Following instructions of the manufacturers, total RNA was isolated using Tri Reagent® (Ambion, Inc., Austin, Tex.). To quantitatively examine the mRNA level of HSV-1 ICP0 from the infected cells, real-time RT-PCR was undertaken using the QuantiTect SYBR Green RT-PCR kit (QIAGEN, Valencia, Calif.). […] Fluorescence (captured at 80° C.) was determined to be absent from the signal generated by primer dimers. Data were collected and recorded by the BIORAD CFX Manager software. The relative quantity of the ICP0 transcripts at the indicated time points was normalized to the relative quantity of the reference gene actin at the same time points and then the log10 copy number of the normalized RNA transcripts were calculated and presented on a bar chart. A melting temperature curve analysis was obtained by measuring (after the amplification cycles) the fluorescence during a period of warming from 60° C. to 95° C. […]

[4] = system: RACK1A protein; test: RACK1 protein expression under salt stress, western blot; type: in vivo; conditions: Arabidopsis lysates
Text: The abundant leaf protein Rubisco large subunit (RbcL) was used as a loading control for the blot. The 37 kD RACK1 band was absent from the genetic knockout of RACK1 plants (double mutant-rack1ab lane).
The reported positive expression of RACK1A protein under salt stress condition in Arabidopsis has led us to examine the RACK1A expression in the presence and absence of the inhibitor compounds during salt stresses. We determined that the RACK1A protein expression was specifically modulated by the inhibitor compounds when the lysates with salt or without salt in the presence and absence of the small compounds were probed with an antibody raised by using the full length RACK1A protein as antigen (Agrisera, Vännäs, Sweden, FIG. 2C). […] However, whether the effect of SD29-12 is Arabidopsis salt stress specific condition needs further experimental evidence. As the antibody cross-reacts with all three RACK1 isoforms in Arabidopsis, we used the double knockout (rack1ab) as a negative control on the blot (triple mutant is lethal at the early seedling stage). The large subunit of the abundant leaf protein rubisco (RbcL) was used as loading control for this blot. As the results support the in-silico based prediction, we set out to investigate the effect of the compounds on the mammalian RACK1 based virus proliferation.

SMILES | RACK1 protein level [1] | cytopathic effect of HSV-1 [2] | ICP0 mRNA level [3] | RACK1 protein expression under salt stress [4]
Nn1c(S)nnc1-c1cc(Cl)cc(Cl)c1 [SD29-14] | loss of RACK1 protein | do not show the cytopathic effect |  | 
Nn1c(S)nnc1-c1ccc(F)cc1 [SD-29] |  |  | essentially showed the same level of ICP0 mRNA | inhibited RACK1 protein expression
